# Assay results reported in PubChem BioAssay AID1963874 (Molecular Pharmacology Branch, DTP, NCI, 2024).
# System: 253994-281-T-J1-PDC KRAS-mutant spheroids with HUVEC/MSC, viability
# Test: Anticancer human tumor 253994-281-T-J1-PDC patient-derived colorectal carcinoma cell line growth inhibition [KRAS2]
# Conditions: for IC50: curve of first compound; for viability, T/C: stronger effect = lower value
# In short: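 KRAS-mutant tumor cells were grown as spheroids with HUVEC endothelial cells and human MSCs as stroma. Targeted agents were tested alone and with KRAS pathway inhibitors. Doses started at or near clinical Cmax, or 10 microM, descending half-log.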
# [1] = second compound 0.0316 µM, first compound 0.000316 µM
# [2] = second compound 0.0316 µM, first compound 0.001 µM
# [3] = second compound 0.0316 µM, first compound 0.00316 µM
# [4] = second compound 0.0316 µM, first compound 0.01 µM
# [5] = second compound 0.0316 µM, first compound 0.0316 µM
# [6] = second compound 0.1 µM, first compound 0.000316 µM
# [7] = second compound 0.1 µM, first compound 0.001 µM
# [8] = second compound 0.1 µM, first compound 0.00316 µM
# [9] = second compound 0.1 µM, first compound 0.01 µM
# [10] = second compound 0.1 µM, first compound 0.0316 µM
# [11] = second compound 0.316 µM, first compound 0.000316 µM
# [12] = second compound 0.316 µM, first compound 0.001 µM
# [13] = second compound 0.316 µM, first compound 0.00316 µM
# [14] = second compound 0.316 µM, first compound 0.01 µM
# [15] = second compound 0.316 µM, first compound 0.0316 µM
# [16] = second compound 1 µM, first compound 0.000316 µM
# [17] = second compound 1 µM, first compound 0.001 µM
# [18] = second compound 1 µM, first compound 0.00316 µM
# [19] = second compound 1 µM, first compound 0.01 µM
# [20] = second compound 1 µM, first compound 0.0316 µM
# [21] = second compound 3.16 µM, first compound 0.000316 µM
# [22] = second compound 3.16 µM, first compound 0.001 µM
# [23] = second compound 3.16 µM, first compound 0.00316 µM
# [24] = second compound 3.16 µM, first compound 0.01 µM
# [25] = second compound 3.16 µM, first compound 0.0316 µM
# 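Further: spheroids exposed to agents for seven days before readout.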
# 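Wherever viability, T/C is given: percent of DMSO vehicle control viability.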
smiles,measurement,setting,value
CC(=O)Nc1cccc(-n2c(=O)n(C3CC3)c(=O)c3c(Nc4ccc(I)cc4F)n(C)c(=O)c(C)c32)c1 + C=CC(=O)N1CCN(c2nc(OCC3CCCN3C)nc3c2CCN(c2cccc4cccc(C)c24)C3)CC1CC#N,IC50,second compound 0.0316 µM,1.57 nM
same,IC50,second compound 0.1 µM,0.98 nM
same,IC50,second compound 0.316 µM,0.66 nM
same,IC50,second compound 1 µM,0.616 nM
same,IC50,second compound 3.16 µM,< 0.1 nM
same,"viability, T/C","second compound 0.0316 µM, first compound 0.0001 µM",86.7%
same,"viability, T/C",[1],84.6%
same,"viability, T/C",[2],66%
same,"viability, T/C",[3],24.7%
same,"viability, T/C",[4],12%
same,"viability, T/C",[5],6.91%
same,"viability, T/C","second compound 0.1 µM, first compound 0.0001 µM",72.5%
same,"viability, T/C",[6],76.9%
same,"viability, T/C",[7],47%
same,"viability, T/C",[8],22.2%
same,"viability, T/C",[9],14.6%
same,"viability, T/C",[10],6.68%
same,"viability, T/C","second compound 0.316 µM, first compound 0.0001 µM",74.9%
same,"viability, T/C",[11],64.7%
same,"viability, T/C",[12],41.4%
same,"viability, T/C",[13],20.9%
same,"viability, T/C",[14],9.84%
same,"viability, T/C",[15],4.12%
same,"viability, T/C","second compound 1 µM, first compound 0.0001 µM",78.9%
same,"viability, T/C",[16],68%
same,"viability, T/C",[17],34.6%
same,"viability, T/C",[18],23.4%
same,"viability, T/C",[19],8.81%
same,"viability, T/C",[20],4.05%
same,"viability, T/C","second compound 3.16 µM, first compound 0.0001 µM",23.4%
same,"viability, T/C",[21],11.8%
same,"viability, T/C",[22],31.7%
same,"viability, T/C",[23],3.64%
same,"viability, T/C",[24],0.37%
same,"viability, T/C",[25],1.21%
CC(C)n1nc(-c2ccc3oc(N)nc3c2)c2c(N)ncnc21 + C=CC(=O)N1CCN(c2nc(OCC3CCCN3C)nc3c2CCN(c2cccc4cccc(C)c24)C3)CC1CC#N,IC50,second compound 0.0316 µM,> 100 nM
same,IC50,second compound 0.1 µM,> 100 nM
same,IC50,second compound 0.316 µM,> 100 nM
same,IC50,second compound 1 µM,> 100 nM
same,IC50,second compound 3.16 µM,0.686 nM
same,"viability, T/C",[1],97.5%
same,"viability, T/C",[2],90.1%
same,"viability, T/C",[3],80.2%
same,"viability, T/C",[4],82.7%
same,"viability, T/C",[5],84%
same,"viability, T/C","second compound 0.0316 µM, first compound 0.1 µM",54.7%
same,"viability, T/C",[6],95.6%
same,"viability, T/C",[7],88.8%
same,"viability, T/C",[8],89.1%
same,"viability, T/C",[9],86.8%
same,"viability, T/C",[10],85.8%
same,"viability, T/C","second compound 0.1 µM, first compound 0.1 µM",58.4%
same,"viability, T/C",[11],95.4%
same,"viability, T/C",[12],96.7%
same,"viability, T/C",[13],85.2%
same,"viability, T/C",[14],81.6%
same,"viability, T/C",[15],68.7%
same,"viability, T/C","second compound 0.316 µM, first compound 0.1 µM",55%
same,"viability, T/C",[16],106%
same,"viability, T/C",[17],89.9%
same,"viability, T/C",[18],79.1%
same,"viability, T/C",[19],77.4%
same,"viability, T/C",[20],68.5%
same,"viability, T/C","second compound 1 µM, first compound 0.1 µM",54%
same,"viability, T/C",[21],73.4%
same,"viability, T/C",[22],25.1%
same,"viability, T/C",[23],56.7%
same,"viability, T/C",[24],17%
same,"viability, T/C",[25],62.4%
same,"viability, T/C","second compound 3.16 µM, first compound 0.1 µM",31.6%
